{"source": "paper PMC7018803", "about": "“A randomized, placebo-controlled, phase 1 study to evaluate the effects of TAK-063 on ketamine-induced changes in fMRI BOLD signal in healthy subjects” (Psychopharmacology, 2019)", "key": {"[1]": {"assay": "Pharmacokinetics of TAK-063 in plasma after single oral dose", "type": "in vivo, human", "description": "(§1) The Statistics Department at Takeda Development Center Americas, Inc., generated a randomization schedule before the start of the study, and this randomization schedule maintained the investigational drug blind. During randomization, subjects were assigned a four-digit randomization sequence that encoded assignment of subjects to the treatment schedule. Subjects were randomized to one of nine treatment schedules and received placebo + ketamine (regimen A) and two of the following three treatment regimens: 3 mg of TAK-063 + ketamine (regimen B), 30 mg of TAK-063 + ketamine (regimen C), and 300 mg of TAK-063 + ketamine (regimen D). […] Treatment sequences are presented in Online Resource Supplementary Table S1. The study consisted of multiple visits with a different treatment protocol on each visit. The visits were standardized and included a screening period (day − 28 to day − 2), check-in (day − 1), a treatment period (days 1), completion of treatment visit (day 2), and a follow-up visit (day 14 ± 3 days after last TAK-063 dose). After each treatment period, subjects stayed overnight at the study site for observation and were discharged on day 2. Each participant completed the study when they completed the follow-up visit after their last treatment2.\nSubjects checked in on day − 1 of each treatment period during which vital signs, electrocardiogram (ECG), and laboratory safety tests were repeated. On day 1 of each treatment period, subjects received a 3-, 10-, or 30-mg TAK-063 dose or placebo tablets. Participants then relaxed, slept, or watched movies while remaining in the research environment. Ketamine (0.12 mg/kg intravenous bolus over 60 s followed by a continuous infusion of 0.31 mg/kg/h over approximately 150 min) was administered 4 h after TAK-063 or placebo (Fig. 1). This ketamine dose was based on a previous study that achieved steady-state concentrations of 75 ng/mL and provided a robust BOLD signal with minimal psychotomimetic symptoms (De Simoni et al. [2013]). […]\nBlood samples were collected for the determination of TAK-063 and ketamine concentrations, and ketamine concentrations were used to verify intravenous delivery of ketamine. Blood samples for determination of TAK-063 concentration were collected at pre-dose and at 0.5, 2, 3, 4.5, 6, 8, 10, 12, and 24 h post dose. Blood samples for determination of ketamine concentration were collected at 0.5, 1, 2, and 2.5 h after administration of ketamine. The target ketamine concentration was established at 75 ng/mL. PK samples were not collected from the arm in which ketamine was administered.\nThis study was not powered for any comparison, and the number of subjects was considered to be suitable for fulfilling study objectives. All statistical tests were two-tailed at α = 0.05 level of significance. For the analysis of the neuroimaging battery test results, effect sizes of > 0.3 were considered potentially meaningful, even without power to detect statistical significance. PK parameters of TAK-063 were generated using WinNonlin Version 6.3. fMRI images were analyzed using SPM8 and Matlab. Percent signal change for resting state data was calculated between pre-ketamine and post-ketamine infusion based on a priori ROIs using SPM’s Anatomy Toolbox (Yurgelun-Todd et al. [2016]). Percent signal change for the working memory task was calculated for the task versus baseline in the post-ketamine condition using the same ROI used for resting state (Yurgelun-Todd et al. [2016]). An analysis of variance (ANOVA) model was used to perform the analyses for BOLD signal changes (Yurgelun-Todd et al. [2016]). Cohen’s d effect sizes were calculated as d=μt^−μp^/sp where d is the effect size and μt^ and μp^ are the least-square means for a TAK-063 dose and placebo regimen, respectively, from the ANOVA model. sp is the pooled standard deviation from both regimens. No adjustments were made for multiple comparisons."}, "healthy male subjects": {"test_system": "healthy male subjects", "assay": "Safety assessments (adverse events, laboratory tests, ECG, vital signs)", "type": "in vivo, human", "description": "as §1\nAEs, clinical laboratory results, ECG, vital signs, and suicide assessments were recorded after administration of TAK-063 and throughout the remainder of the study. Intensity of AEs was classified as mild, moderate, and severe, and each AE was assessed for association with study drug. AEs were assessed throughout the 2-day study visit, at the three treatment visits, at the study exit, and at the follow-up visit. ECG, vital signs, and clinical laboratory results were assessed at visit 1 during screening, day − 1, day 1 of each treatment period, day 2 of period 3 (study exit), the early termination visit, and the follow-up visit.\nIn this study, the safety set, used for demographic and safety evaluations, included subjects who receive at least one dose of study medication. The PK set included all subjects in the safety set with at least one available drug concentration measurement. The PD set included all subjects in the safety set and with at least one valid PD assessment."}, "[2]": {"assay": "Pharmacokinetics of TAK-063 in plasma after single oral dose", "type": "in vivo, human", "remark": "listed apart in the source"}, "rats": {"test_system": "rats", "design": "method as in Suzuki et al. [2016]", "conditions": "ref Suzuki et al. [2016]; cited from earlier work"}, "[3]": {"test_system": "individuals with schizophrenia", "design": "method as in Macek et al. [2017]", "conditions": "20 mg; 6-week phase 2 study; ref Macek et al. [2017]; cited from earlier work"}, "[4]": {"test_system": "phosphodiesterase 10A (PDE10A)", "design": "method as in Seeger et al. [2003]; Suzuki et al. [2015]", "conditions": "ref Seeger et al. [2003]; Suzuki et al. [2015]; cited from earlier work"}, "[5]": {"test_system": "patients with schizophrenia", "conditions": "cited from earlier work"}, "[6]": {"conditions": "all 27 subjects, TAK-063 or placebo followed by ketamine"}, "[7]": {"conditions": "all subjects, most frequently reported AEs"}}}
{"smiles": "COc1cn(-c2ccc(-n3cccn3)cc2F)nc(-c2ccnn2-c2ccccc2)c1=O", "note": "[TAK-063]", "values": [{"measurement": "AUC24", "setting": "[1]; 3 mg single oral dose", "value": 111.3, "unit": "ng·h/mL"}, {"measurement": "Average concentration (Cav)", "setting": "[1]; 3 mg single oral dose", "value": 4.63, "unit": "ng/mL"}, {"measurement": "AUC24", "setting": "[1]; 10 mg single oral dose", "value": 549.2, "unit": "ng·h/mL"}, {"measurement": "Average concentration (Cav)", "setting": "[1]; 10 mg single oral dose", "value": 22.9, "unit": "ng/mL"}, {"measurement": "AUC24", "setting": "[1]; 30 mg single oral dose", "value": 1296.3, "unit": "ng·h/mL"}, {"measurement": "Average concentration (Cav)", "setting": "[1]; 30 mg single oral dose", "value": 53.9, "unit": "ng/mL"}, {"measurement": "rate of absorption", "setting": "[1]; oral administration", "value": "moderate"}, {"measurement": "Decline of plasma concentrations after Cmax", "setting": "[1]; single oral dose", "value": "declined in a biphasic manner"}, {"measurement": "EPS-type AE in one subject", "setting": "healthy male subjects; 30 mg", "value": "restlessness"}, {"measurement": "EPS-type AE in one subject", "setting": "healthy male subjects; 300 mg", "value": "muscle tightness and restlessness"}, {"measurement": "discontinuation because of EPS", "setting": "healthy male subjects; 300 mg", "value": "One subject"}, {"measurement": "tolerability of the 300-mg dose", "setting": "healthy male subjects; 300 mg, led to change of dose to 10 mg", "value": "higher than expected rates of dystonia and nausea"}, {"measurement": "subjects with AEs consistent with extrapyramidal symptoms (EPS)", "setting": "healthy male subjects; TAK-063 group overall", "value": 8.0, "unit": "%"}, {"measurement": "subjects with AEs consistent with extrapyramidal symptoms (EPS) (number)", "setting": "healthy male subjects; TAK-063 group overall", "value": "two"}, {"measurement": "subjects who experienced AEs related to the study drug", "setting": "healthy male subjects; [6]", "value": 88.9, "unit": "%"}, {"measurement": "subjects who experienced AEs related to the study drug (number)", "setting": "healthy male subjects; [6]", "value": 24, "unit": "subjects"}, {"measurement": "severity of drug-related AEs", "setting": "healthy male subjects; all subjects", "value": "mild to moderate"}, {"measurement": "fatigue", "setting": "healthy male subjects; [7]", "value": 25.9, "unit": "%"}, {"measurement": "nausea", "setting": "healthy male subjects; [7]", "value": 40.7, "unit": "%"}, {"measurement": "somnolence", "setting": "healthy male subjects; [7]", "value": 40.7, "unit": "%"}, {"measurement": "vomiting", "setting": "healthy male subjects; [7]", "value": 63.0, "unit": "%"}, {"measurement": "clinically significant changes from baseline in vital signs, clinical laboratory tests and 12-lead ECGs", "setting": "healthy male subjects; baseline to post dose", "value": "No changes"}, {"measurement": "deaths or serious AEs", "setting": "healthy male subjects; during the study", "value": "No deaths or serious AEs"}, {"measurement": "participants discontinuing study drug because of AEs", "setting": "healthy male subjects; in vivo", "value": "one"}, {"measurement": "overall safety and tolerability", "setting": "healthy male subjects; single oral doses with ketamine", "value": "safe and well tolerated"}, {"measurement": "Dose proportionality of Cmax and AUC", "setting": "[2]; dose range 3-30 mg", "value": "close to dose proportional increase in exposure"}, {"measurement": "median tmax", "setting": "[2]; single oral dose, plasma, 3-30 mg", "value": 3, "unit": "h"}, {"measurement": "MK-801-induced effects on hyperactivity", "setting": "rats", "value": "reversed"}, {"measurement": "change from baseline in PANSS score at week 6 vs placebo (primary endpoint)", "setting": "[3]", "value": "did not meet its primary endpoint"}, {"measurement": "PDE10A inhibition", "setting": "[4]", "value": "selective inhibitor"}, {"measurement": "safety and tolerability in clinical studies", "setting": "[5]; ref Goldsmith et al. [2017], Tsai et al. [2016]", "value": "safe and well tolerated"}, {"measurement": "effects in patients with schizophrenia", "setting": "[5]; ref Macek et al. [2016a], [b]", "value": "increases in electroencephalogram (EEG) gamma power, improvements in mismatch negativity, and some improvements in cognition"}]}
